Our source for the TGI and GI50 values is PubChem BioAssay (NCI).

Some test systems named below: DMS 273 small cell lung; DMS 114 small cell lung; KM12 colon; LXFL 529 NSCLC; SR leukemia; SK-OV-3 ovarian; A498 renal; DLD-1 colon; SNB-78 CNS; HOP-18 NSCLC; SF-295 CNS; ACHN renal; XF 498 CNS; NCI/ADR-RES ovarian.
Common to all, as to assay: NCI-60 cell line screen, 48 h

Each structure is given as a SMILES string.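 Following 48 hours of exposure in 96-well plates, responses at five concentrations were used to interpolate endpoints linearly. Here, GI50 denotes the concentration required for 50% inhibition of growth. TGI is the concentration that stops growth completely.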

`N#CC(Nc1cccc(C(F)(F)F)c1)c1ccccc1C(F)(F)F` (stereo unspecified): the TGI in the experiment on DMS 273 small cell lung worked out at 21.1 µM; with DMS 114 small cell lung, 23.8 µM; in the experiment with KM12 colon it was 19.9 µM; in the experiment with LXFL 529 NSCLC, 15.7 µM; in the experiment on SR leukemia, 25.9 µM; in the experiment with SK-OV-3 ovarian, 31.4 µM. The TGI in the experiment on A498 renal was found to be 34.2 µM; with DLD-1 colon it was 29.5 µM; with SNB-78 CNS, 43 µM; in the experiment with HOP-18 NSCLC it was 26.4 µM; with SF-295 CNS it was 22.2 µM; in the experiment on ACHN renal, 27.6 µM. The same compound had a TGI in the experiment on XF 498 CNS of 12.9 µM.

Regarding `c1ccc(N=c2nc(N3CCOCC3)ss2)cc1`, the TGI with DMS 273 small cell lung is 31.4 µM; in the experiment with DMS 114 small cell lung it was 30.2 µM; in the experiment with KM12 colon, 32.5 µM; in the experiment on LXFL 529 NSCLC it was 24.6 µM; in the experiment with SR leukemia, 58.3 µM; in the experiment with SK-OV-3 ovarian, greater than 100 µM. For the same compound, the TGI is 79.5 µM in the experiment with A498 renal; 28.3 µM in the experiment on DLD-1 colon; 51.3 µM with SNB-78 CNS; greater than 100 µM with HOP-18 NSCLC; 35.1 µM with SF-295 CNS; 30.9 µM in the experiment on ACHN renal. The same compound had a TGI in the experiment on XF 498 CNS of 32.1 µM.

Take `CCOc1ccc(/C(C=O)=C(\Cl)c2ccc(OC)c(OC)c2)cc1`: the TGI in the experiment on DMS 273 small cell lung, in the experiment on DMS 114 small cell lung, in the experiment on LXFL 529 NSCLC, in the experiment on SK-OV-3 ovarian, in the experiment on A498 renal and with DLD-1 colon was greater than 100 µM throughout. Besides, the TGI in the experiment on SNB-78 CNS was greater than 100 µM; with HOP-18 NSCLC it was greater than 100 µM; with SF-295 CNS, greater than 100 µM; with ACHN renal, greater than 100 µM; in the experiment with XF 498 CNS, 79.2 µM.

As for `CCCC(N)C(=O)c1ccccc1` (stereo unspecified), the TGI in the experiment on DMS 273 small cell lung, with DMS 114 small cell lung, with KM12 colon, in the experiment on LXFL 529 NSCLC, in the experiment on SR leukemia and with SK-OV-3 ovarian was greater than 100 µM each time. Also, the TGI in the experiment on A498 renal, with DLD-1 colon, in the experiment with SNB-78 CNS, with HOP-18 NSCLC, with SF-295 CNS and with ACHN renal was greater than 100 µM throughout. Further, the TGI in the experiment with XF 498 CNS was greater than 100 µM.

Regarding `Cc1cc2c(C(C)C)c(O)c(O)c(C=NCCO)c2c(O)c1-c1c(C)cc2c(C(C)C)c(O)c(O)c(C=NCCO)c2c1O`, the TGI in the experiment with DMS 273 small cell lung is 3.16 µM; in the experiment with DMS 114 small cell lung, 2.7 µM; in the experiment with KM12 colon, 2.4 µM; in the experiment with LXFL 529 NSCLC, 3.05 µM; in the experiment on SR leukemia, 3.78 µM; in the experiment on SK-OV-3 ovarian it was 12.3 µM. For the same compound, the TGI with A498 renal was 9.76 µM; in the experiment on DLD-1 colon it was 11.7 µM; in the experiment with SNB-78 CNS it was 34.1 µM; in the experiment with HOP-18 NSCLC, 5.37 µM; in the experiment on SF-295 CNS, 5.51 µM; in the experiment with ACHN renal, 12.4 µM. The same compound displayed a TGI with XF 498 CNS of 8.43 µM.

Regarding `O=C(Nc1ccc(Sc2ccc(N=Nc3c(O)c(S(=O)(=O)O)cc4cc(S(=O)(=O)O)ccc34)cc2)cc1)c1ccc(N=Nc2c(O)ccc3c(S(=O)(=O)O)cc(S(=O)(=O)O)cc23)cc1`, the TGI is greater than 100 µM in the experiment with DMS 273 small cell lung; greater than 100 µM in the experiment on KM12 colon; greater than 100 µM with LXFL 529 NSCLC; 85.2 µM in the experiment with SR leukemia; greater than 100 µM in the experiment on SK-OV-3 ovarian; greater than 100 µM in the experiment with A498 renal. Also, the TGI with DLD-1 colon was greater than 100 µM; in the experiment with SNB-78 CNS, greater than 100 µM; with HOP-18 NSCLC it was greater than 100 µM; in the experiment with SF-295 CNS, greater than 100 µM; with ACHN renal, greater than 100 µM; in the experiment with XF 498 CNS, 91.7 µM.

For `O=C(Nc1c(C(=O)NC2CCCCC2)[nH]c(=O)[nH]c1=O)c1ccc(Cl)cc1`, the TGI in the experiment with DMS 114 small cell lung, in the experiment with KM12 colon, in the experiment on LXFL 529 NSCLC, with SR leukemia, in the experiment with SK-OV-3 ovarian and in the experiment with DLD-1 colon was greater than 100 µM each time. Further, the TGI in the experiment on HOP-18 NSCLC, with SF-295 CNS, in the experiment with ACHN renal and with XF 498 CNS was greater than 100 µM in each case.

For `CC(=O)O[C@H]1C=CC(=O)C(C)CC1C` (stereo partly specified), the TGI with DMS 273 small cell lung, with DMS 114 small cell lung, in the experiment with KM12 colon, with LXFL 529 NSCLC, with SR leukemia and in the experiment with SK-OV-3 ovarian was greater than 100 µM in each case. Besides, the TGI with A498 renal, in the experiment with DLD-1 colon, with SNB-78 CNS, in the experiment with SF-295 CNS, with ACHN renal and with XF 498 CNS was greater than 100 µM in each case.

Turning to `CCC(=O)NC(Nc1cccc(F)c1)(C(F)(F)F)C(F)(F)F`, the TGI in the experiment with KM12 colon, with SR leukemia, in the experiment on SK-OV-3 ovarian, with NCI/ADR-RES ovarian, in the experiment on SF-295 CNS and with ACHN renal was greater than 100 µM in each case.

Turning to `Clc1ccc(CNc2nc(Cl)c3[nH]cnc3n2)cc1Cl`, the TGI was greater than 100 µM with KM12 colon; 77.6 µM in the experiment with SR leukemia; 85.5 µM with SK-OV-3 ovarian; 45.4 µM with A498 renal; 69.6 µM with NCI/ADR-RES ovarian; greater than 100 µM with SF-295 CNS. In the experiment with ACHN renal, this compound had a TGI greater than 100 µM.

For `COc1ccc(-c2nn(-c3cccc(NC(=O)Nc4ccccc4)c3)cc2-c2ccncc2)cc1Cl`, the GI50 in the experiment on KM12 colon is 2250 nM; with SR leukemia it was 2350 nM; in the experiment on SK-OV-3 ovarian, 3400 nM; in the experiment on A498 renal it was 1170 nM; in the experiment on NCI/ADR-RES ovarian, 2810 nM; in the experiment with SF-295 CNS, 2010 nM. The TGI in the experiment on KM12 colon is 4.89 µM; in the experiment on SR leukemia, 6.69 µM; in the experiment with SK-OV-3 ovarian, 30.8 µM; in the experiment with A498 renal, 3.28 µM; with NCI/ADR-RES ovarian, 8.26 µM; with SF-295 CNS, 6.32 µM.

As to `NC1(C(=O)O)CCc2ccc(N(CCCl)CCCl)cc2C1` (stereo unspecified), the TGI in the experiment with DMS 273 small cell lung, with DMS 114 small cell lung, in the experiment with KM12 colon, in the experiment on SK-OV-3 ovarian, in the experiment on A498 renal and in the experiment with DLD-1 colon was greater than 100 µM each time. Further, the TGI with NCI/ADR-RES ovarian, with HOP-18 NSCLC, in the experiment on SF-295 CNS and with XF 498 CNS was greater than 100 µM in each case.

`CN1C[C@H]2[C@@H](C1=O)[C@H](c1ccccc1)ON2C`: the TGI in the experiment on SR leukemia, with SK-OV-3 ovarian, in the experiment on NCI/ADR-RES ovarian, with SF-295 CNS and in the experiment with ACHN renal was greater than 100 µM throughout.

As to `O=C(O)C1CCC(=O)N1S(=O)(=O)c1ccccc1` (stereo unspecified), the TGI in the experiment with DMS 273 small cell lung, in the experiment with DMS 114 small cell lung, in the experiment with KM12 colon, in the experiment on SK-OV-3 ovarian, in the experiment with A498 renal and in the experiment on DLD-1 colon was greater than 100 µM in each case. The TGI in the experiment with SNB-78 CNS, in the experiment with NCI/ADR-RES ovarian, with HOP-18 NSCLC, in the experiment with SF-295 CNS and with XF 498 CNS was greater than 100 µM each time.

Regarding `Fc1ccc(-c2nn3c(-c4cc(C(F)(F)F)cc(C(F)(F)F)c4)nnc3s2)cc1`, the GI50 in the experiment with KM12 colon was greater than 50000 nM; in the experiment with SK-OV-3 ovarian, 1380 nM; in the experiment on NCI/ADR-RES ovarian it was 2950 nM; in the experiment on SF-295 CNS, 1720 nM. Moreover, the TGI with KM12 colon is greater than 50 µM; in the experiment on SK-OV-3 ovarian, 3.9 µM; in the experiment with NCI/ADR-RES ovarian, greater than 50 µM; in the experiment on SF-295 CNS, greater than 50 µM.
